Reference: US6838462B2, “Insecticidal azoles” (Bayer CropScience LP, priority 2001, dated 2005)

Legend:
Type in all cases: in vivo
Lucilia cuprina larvae = test: Blowfly larvae test / development-inhibitory action; conditions: 48 h, read-out: % action (mortality of larvae)
Description: Blowfly Larvae Test/Development-Inhibitory Action
Test animals: Lucilia cuprina larvae
(§1) Solvent: Dimethyl sulphoxide
(§2) 20 mg of active compound are dissolved in one ml of dimethyl sulphoxide. To prepare a suitable formulation, the solution of active compound is diluted with water to the particular concentration desired.
About 20 Lucilia cuprina larvae are introduced into a test tube which contains about 1 cm^3 of horsemeat and 0.5 ml of the preparation of active compound to be tested. The activity of the preparation of active compound is determined after 48 hours as the mortality of the larvae in %.
The test tubes are then transferred into a beaker whose bottom is covered with sand. After a further 12 days, the test tubes are removed and the pupae and flies are counted. The development-inhibitory action is stated as inhibition of hatching in % (ratio of pupae to flies that have hatched) after 1.5 times the development period of an untreated control.

[1] = system: Adults of Ctenocephalides felis, strain "Georgi"; test: Test with cat fleas / oral uptake; conditions: 24 h, read-out: % action (mortality of larvae)
Description: Test with Cat Fleas/Oral Uptake
Test animals: Adults of Crenocephalides felis
Solvent: Dimethyl sulphoxide (DMSO)
To produce a suitable preparation, a suitable solution of active compound is prepared from 20 mg of active compound and 1 ml of DMSO. 20 μl of this formulation are added to 4 ml of citrated cattle blood and stirred.
20 unfed adult fleas (Ctenocephalides felis, strain “Georgi”) are placed into a chamber (Ø 5 cm) whose top and bottom are closed with gauze. A metal cylinder whose underside is covered with parafilm is placed onto the chamber. The cylinder contains the 4 ml of blood/active compound formulation which can be taken up by the fleas through the parafilm membrane. Whereas the blood is warmed to 37° C., the temperature in the area of the flea chambers is adjusted to 25° C. Controls are mixed with the same volume of DMSO, without addition of a compound. The determinations are carried out triplicate.
After 24 h, the mortality in % is determined.
Compounds which effect an at least 25% kill of the fleas within 24 h are judged to be effective.

[2] = system: Third larval stages of Periplanela americana; test: Test with cockroaches - dip treatment; conditions: dip treatment 60 seconds, after 7 days, 100% = all cockroach larvae killed
Description: Test with Cockroaches—Dip Treatment
Test animals: Third larval stages of Periplanela americana
as §1, §2
20 ml of this preparation of active compound are pipetted into tubes (Ø 1.5 cm, H 10 cm). 4 cockroach larvae are anaesthetized with CO2 and transferred into a tube (Ø 1.2 cm, H 9 cm) with 3 holes (bottom and 5 cm below the upper rim). […] The tube is dipped into the preparation of active compound for 60 seconds, with all cockroach larvae being wetted completely. After the liquid has run off, the cockroach larvae are transferred to filter discs in PP dishes (Ø 9.7 cm. H 8 cm).
After 2 and 24 hours and after 7 days, the activity of the preparation of active compound is determined. 100% means that all cockroach larvae have been killed; 0% means that none of the cockroach larvae have been killed.

Cc1s/c(=N\C#N)n2c1N(Cc1ccc(Cl)nc1)CC2 [Compound I-1, 1-[6-Chloro-3-pyridylmethyl]-5-cyanoimino-7-methyl-4.5-dihydro[1,3]diazolano-[1,2-c][1,3]thiazoline]
mortality at 100 ppm (Lucilia cuprina larvae): 100% | mortality at 300 ppm (Lucilia cuprina larvae): 100% | mortality at 1000 ppm (Lucilia cuprina larvae): 100% | mortality at 100 ppm [1]: 30% | % action (7 d) ([2]; 100 ppm): 100% | % action (7 d) ([2]; 300 ppm): 100% | % action (7 d) ([2]; 1000 ppm): 100%
